Reference: ChEMBL document CHEMBL5365457, “Selective HDAC3 Inhibitors with Potent In Vivo Antitumor Efficacy against Triple-Negative Breast Cancer” (J Med Chem, 2023)
pIC50: −log10 of the molar value. The source made the active and inactive calls. No cut-off for these calls is given here.

Assays:
MDA-MB-231 [1] = assay: Cytotoxicity against human MDA-MB-231 cells assessed as inhibition of cell growth incubated for 72 hrs by MTT assay; type: functional, cell-based; settings: MDA-MB-231, 72 h
[2] = MRT (0 to infinity) in Wistar rat at 15 mg/kg, ip measured upto 24 hrs by HPLC analysis; type: ADME, organism-based; settings: in vivo
[3] = Apparent volume of distribution in Wistar rat at 15 mg/kg, ip measured upto 24 hrs by HPLC analysis; type: ADME, organism-based; settings: in vivo
[4] = Cytotoxicity against Oxaliplatin-resistant human MDA-MB-231 cell assessed as reduction in cell viability incubated for 72 hrs by MTT assay; type: functional, cell-based; settings: Oxaliplatin-resistant MDA-MB-231 cell
4T1 [5] = assay: Cytotoxicity against mouse 4T1 cells assessed as inhibition of cell growth incubated for 72 hrs by MTT assay; type: functional, cell-based; settings: 4T1, 72 h
4T1 [6] = assay: Antitumor activity against mouse 4T1 cells implanted in BALB/c mouse assessed as reduction in tumor volume at 15 mg/kg, ip administered 5 times a week for 21 days (reference value: 52.25 +/-13.24 mm3); type: functional; settings: time 21 day
4T1 [7] = assay: Antitumor activity against mouse 4T1 cells implanted in BALB/c mouse assessed as tumor growth inhibition at 15 mg/kg, ip measured on day 7; type: functional; settings: 4T1, 168 h, time 7 day, read-out: TGI
[8] = AUC (0 to infinity) in Wistar rat at 15 mg/kg, ip measured upto 24 hrs by HPLC analysis; type: ADME, organism-based; set-up: dose 15 mg/kg, time < 24 hrs, route ip; settings: in vivo
[9] = Tmax in Wistar rat at 15 mg/kg, ip measured upto 24 hrs by HPLC analysis; type: ADME, organism-based; settings: in vivo
[10] = Toxicity in BALB/c mouse implanted with mouse 4T1 cells assessed as heart damage at 5 to 15 mg/kg, ip measured after 21 days by H and E staining based assay; type: organism-based; settings: in vivo, 504 h, dose 5-15 mg/kg, time 21 day
4T1 [11] = assay: Antitumor activity against mouse 4T1 cells implanted in BALB/c mouse assessed as tumor growth inhibition at 15 mg/kg, ip measured on day 21; type: functional; settings: 4T1, 504 h, time 21 day, read-out: TGI
4T1 [12] = assay: Antitumor activity against mouse 4T1 cells implanted in BALB/c mouse assessed as reduction in Ki-67 expression in tumor tissue at 5 to 15 mg/kg, ip measured for 21 days by fluorescence based microscopic analysis; type: functional, organism-based; settings: dose 5-15 mg/kg, time 21.0 day
[13] = Cytotoxicity against human HCEC cells assessed as inhibition of cell growth incubated for 72 hrs by MTT assay; type: toxicity, cell-based; settings: human, HCEC cells
4T1 [14] = assay: Antitumor activity against mouse 4T1 cells implanted in BALB/c mouse assessed as tumor growth inhibition at 15 mg/kg, ip measured on day 14; type: functional; settings: 4T1, 336 h, time 14 day, read-out: TGI
[15] = AUMC (0 to infinity) in Wistar rat at 15 mg/kg, ip measured upto 24 hrs by HPLC analysis; type: ADME, organism-based; settings: in vivo
[16] = AUC (0 to t) in Wistar rat at 15 mg/kg, ip measured upto 24 hrs by HPLC analysis; type: ADME, organism-based; set-up: dose 15 mg/kg, time < 24 hrs, route ip; settings: in vivo
4T1 [17] = assay: Antitumor activity against mouse 4T1 cells implanted in BALB/c mouse assessed as increase in number of lung nodules at 15 mg/kg, ip measured for 7 days by H and E staining based assay; type: functional, organism-based; settings: time 7.0 day
4T1 [18] = assay: Induction of apoptosis in mouse 4T1 cells at 1.54 uM incubated for 72 hrs by annexin/PI staining based flow cytometry analysis (reference value: 1.35%); type: functional
MCF7 = assay: Cytotoxicity against human MCF7 cells assessed as inhibition of cell growth incubated for 72 hrs by MTT assay; type: functional, cell-based; settings: MCF7, 72 h
MDA-MB-453 = assay: Cytotoxicity against human MDA-MB-453 cells assessed as inhibition of cell growth incubated for 72 hrs by MTT assay; type: functional, cell-based; settings: MDA-MB-453, 72 h
[19] = Cmax in Wistar rat at 15 mg/kg, ip measured upto 24 hrs by HPLC analysis; type: ADME, organism-based; set-up: dose 15 mg/kg, time < 24 hrs, route ip; settings: in vivo
4T1 [20] = assay: Antitumor activity against mouse 4T1 cells implanted in BALB/c mouse assessed as reduction in tumor volume at 5 mg/kg, ip administered 5 times a week for 21 days (reference value: 51.91 +/-7.45 mm3); type: functional; settings: time 21 day
[21] = Cytotoxicity against human MCF-10A cells assessed as inhibition of cell growth incubated for 72 hrs by MTT assay; type: toxicity, cell-based
[22] = Toxicity in BALB/c mouse implanted with mouse 4T1 cells assessed as spleen damage at 5 to 15 mg/kg, ip measured after 21 days by H and E staining based assay; type: organism-based; settings: in vivo, 504 h, dose 5-15 mg/kg, time 21 day
[23] = Toxicity in BALB/c mouse implanted with mouse 4T1 cells assessed as kidney damage at 5 to 15 mg/kg, ip measured after 21 days by H and E staining based assay; type: organism-based; settings: in vivo, 504 h, dose 5-15 mg/kg, time 21 day
[24] = Toxicity in BALB/c mouse implanted with mouse 4T1 cells assessed as liver damage at 5 to 15 mg/kg, ip measured after 21 days by H and E staining based assay; type: organism-based; settings: in vivo, 504 h, dose 5-15 mg/kg, time 21 day
[25] = Apparent oral clearance in Wistar rat at 15 mg/kg, ip measured upto 24 hrs by HPLC analysis; type: ADME, organism-based; settings: in vivo
4T1 [26] = assay: Antitumor activity against mouse 4T1 cells implanted in BALB/c mouse assessed as reduction in tumor weight at 15 mg/kg, ip administered 5 times a week for 21 days; type: functional; settings: time 21 day
4T1 [27] = assay: Cell cycle arrest in mouse 4T1 cells assessed as accumulation of cells at G1 phase at 7.72 uM incubated for 72 hrs by flow cytometry; type: functional
MDA-MB-231 [28] = assay: Cytotoxicity against wild type human MDA-MB-231 cells assessed as reduction in cell viability incubated for 72 hrs by MTT assay; type: functional, cell-based; settings: MDA-MB-231, 72 h
4T1 [29] = assay: Cell cycle arrest in mouse 4T1 cells assessed as accumulation of cells at G1 phase at 38.6 uM incubated for 72 hrs by flow cytometry; type: functional
[30] = Half life in Wistar rat at 15 mg/kg, ip measured upto 24 hrs by HPLC analysis; type: ADME, organism-based; settings: in vivo
4T1 [31] = assay: Antitumor activity against mouse 4T1 cells implanted in BALB/c mouse assessed as increase in apoptosis in tumor tissue at 5 to 15 mg/kg, ip by TUNEL staining based microscopic analysis; type: functional, organism-based; settings: dose 5-15 mg/kg
4T1 [32] = assay: Cell cycle arrest in mouse 4T1 cells assessed as accumulation of cells at G1 phase at 1.54 uM incubated for 72 hrs by flow cytometry; type: functional

CCCCNNC(=O)c1ccc(Br)cc1
pIC50 (MDA-MB-231 [1]): 4.61
MRT inf [2]: 3.66 h
Vz/F [3]: 7.65 (mg/kg)/(ug/ml)
pIC50 [4]: 4.56
pIC50 (4T1 [5]): 5.11
Activity (4T1 [6]): 520.32 mm3
inhibition in vivo at 15 mg/kg (4T1 [7]): 55.6%
AUC(0-inf) [8]: 14700 ng·h/mL
Tmax [9]: 2 h
Activity [10]: Non-Toxic
inhibition in vivo at 15 mg/kg (4T1 [11]): 39.5%
Activity (4T1 [12]): Active
IC50 at 72 h [13]: 95.4 µM
inhibition in vivo at 15 mg/kg (4T1 [14]): 38.4%
AUMC [15]: 53.64 ug/ml.hr^2
AUC(0-t) at 24 h [16]: 14500 ng·h/mL
Activity (4T1 [17]): inactive
Activity (4T1 [18]): 30.4%
pIC50 (MCF7): 4.81
pIC50 (MDA-MB-453): 4.60
Cmax [19]: 5240 ng/mL
Activity (4T1 [20]): 1005.32 mm3
IC50 at 72 h [21]: 99.3 µM
Activity [22]: Non-Toxic
Activity [23]: Non-Toxic
Activity [24]: Non-Toxic
CL/F [25]: 1.03 (mg/kg)/(ug/ml).hr
Activity (4T1 [26]): 0.29 g
Activity (4T1 [27]): 41.4%
pIC50 (MDA-MB-231 [28]): 4.61
Activity (4T1 [29]): 52.3%
half-life [30]: 5.18 h
Activity (4T1 [31]): Active
Activity (4T1 [32]): 50.4%
